Values joined by “and” are separate entries in the source; they are usually repeats but may differ in a detail not shown here. Equal entries are not always repeated.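 Method: 48-hour compound exposure of cells in 96-well plates, five concentrations, linear interpolation of endpoints. Here, GI50 denotes the concentration required for 50% inhibition of growth. TGI is the concentration that stops growth completely.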
Tests used:
Test in all cases: DTP human tumour cell line panel, 48 h
A549 NSCLC = system: A549 NSCLC
CCRF-CEM leukemia = system: CCRF-CEM leukemia
COLO 205 colon = system: COLO 205 colon
HCT-15 colon = system: HCT-15 colon
HOP-62 NSCLC = system: HOP-62 NSCLC
NCI-H460 lung = system: NCI-H460 lung
OVCAR-8 ovarian = system: OVCAR-8 ovarian
SK-OV-3 ovarian = system: SK-OV-3 ovarian
SR leukemia = system: SR leukemia
HCC-2998 colon = system: HCC-2998 colon

Row | SMILES | GI50 (A549 NSCLC) [µM] | TGI (A549 NSCLC) [µM] | GI50 (CCRF-CEM leukemia) [µM] | TGI (CCRF-CEM leukemia) [µM] | GI50 (COLO 205 colon) [µM] | GI50 (HCT-15 colon) [µM] | TGI (HCT-15 colon) | GI50 (HOP-62 NSCLC) [µM] | TGI (HOP-62 NSCLC) [µM] | GI50 (NCI-H460 lung) [µM] | TGI (NCI-H460 lung) [µM] | GI50 (OVCAR-8 ovarian) [µM] | TGI (OVCAR-8 ovarian) [µM] | GI50 (SK-OV-3 ovarian) [µM] | TGI (SK-OV-3 ovarian) [µM] | GI50 (SR leukemia) [µM] | TGI (SR leukemia) [µM] | TGI (COLO 205 colon) [µM] | TGI (HCC-2998 colon) | GI50 (HCC-2998 colon) [µM]
1 | C#CCN(Cc1nc2cc(C(F)(F)F)ccc2nc1-c1ccccc1)c1ccc(C)cc1 | 9.23 | > 93 | > 55.7 | > 100 | 2.79 | 6.01 | > 24.8 µM | 4.41 | 33.9 | 3.93 | > 100 | 10.9 | > 73.9 | 8.56 | > 26.4 | 16.1 | 41.3 | – | – | –
2 | CCCCNC(=O)C1C(=O)N(CCCC)C(=O)/C1=N\N (centres undefined) | – | – | – | – | – | – | > 100 µM | – | > 100 | – | > 100 | – | > 100 | – | > 100 | – | – | > 100 | > 100 µM | –
3 | O=c1c2ccccc2nc(/C=C(\O)c2ccncc2)n1-c1ccc(Cl)cc1 | – | > 100 | – | > 100 | – | – | > 100 µM | – | > 100 | – | > 100 | – | > 100 | – | > 100 | – | > 100 | > 100 | – | –
4 | O=C(O)COc1ccc(C(=O)/C(SS/C(C(=O)c2ccc(OCC(=O)O)c(Cl)c2Cl)=C2\C=C(c3ccc(Cl)cc3)SS2)=C2/C=C(c3ccc(Cl)cc3)SS2)c(Cl)c1Cl | – | 41.7 | – | 5.85 | – | – | 18.1 µM | – | > 100 | – | 35.6 | – | > 100 | – | > 100 | – | – | 1.27 | 25.3 µM | –
5 | CC1=NN(c2ccc(S(=O)(=O)O)cc2)C(=O)/C1=C/c1ccc(Cl)cc1 | – | > 100 | – | > 100 | – | – | > 100 µM | – | > 100 | – | > 100 | – | > 100 | – | > 100 | – | > 100 | > 100 | – | –
6 | O=C(c1ccccc1)C(c1ccccc1)C1(O)C(=O)Nc2ccc([N+](=O)[O-])cc21 (centres undefined) | – | > 100 | – | > 100 | – | – | > 100 µM | – | > 100 | – | > 100 | – | > 100 | – | 79.7 | – | – | > 100 | > 100 µM | –
7 | N/C(=N/N=C/c1ccccc1)N/N=C\c1ccccc1 | 3.79 | > 100 | 5.13 | > 100 | 3.66 | 3.72 | 30.3 µM | 9.71 | > 100 | 3.89 | > 100 | 6.69 | > 100 | 6.37 | > 100 | – | – | 14.7 | 37.8 µM | 7.21
8 | COc1cc2c(c(OC)c1OC)-c1ccc(OC)c(=O)cc1[C@@H](NC(C)=O)CC2 | – | > 100 | – | – | – | – | > 100 µM and 25.8 µM and 50.4 µM | 0.866 | > 625 | 0.625 | – | 1.35 | > 100 | – | – | < 0.01 | > 100 | – | 1.01 µM and 7.43 µM | –
9 | CCCCCCCCCCCCSC1=C(Cl)C(=O)C(OC)=C(OC)C1=O | 4.39 | 21.1 | 1.53 | > 100 | 4.32 | 1.69 | 27.8 µM | 6.07 | 18.5 | 2.15 | 11.1 | 2.35 | > 100 | 9.78 | 27.3 | – | – | 18.4 | 10.9 µM | 2.41
10 | c1ccc2cc(NCNc3ccc4ccccc4c3)ccc2c1 | – | 47.5 | – | 62.6 | – | – | 46.4 µM | – | 51.3 | – | 28.9 | – | 58.2 | – | > 100 | – | 31.4 | 34.3 | – | –
11 | CCOC(=O)C(N=C(c1ccccc1)c1ccccc1)N(C(=O)OC(C)(C)C)C(=O)OC(C)(C)C (centres undefined) | – | > 100 | – | – | – | – | > 100 µM | – | – | – | – | – | > 100 | – | > 100 | – | > 100 | > 100 | > 100 µM | –
12 | CCCCCCn1c(-c2ccc(C(=O)O/N=C(\N)c3ccc4ccccc4c3)cc2)nc(-c2ccccc2)c1-c1ccccc1 | 2.55 | > 100 | 1.51 | > 100 | > 100 | 7.53 | > 100 µM | 5.77 | > 100 | > 100 | > 100 | > 96.3 | > 100 | 25.9 | > 90.9 | – | – | > 100 | > 100 µM | > 100
13 | CCOC(=O)Cc1csc(Nc2ccc(OCC)cc2)n1 | – | > 100 | – | – | – | – | > 100 µM | – | > 100 | – | > 100 | – | > 100 | – | – | – | > 100 | > 100 | > 100 µM | –
14 | Cc1ccc(-c2cc3c4c(nc5ccccc53)C(=O)c3cccnc3-c4n2)cc1 | 4.02 | 16.2 | 8.04 | > 100 | 16.3 | 12.7 | 49.9 µM | 15.7 | 37.5 | 3.14 | 16.4 | 11.4 | 37.6 | 34.7 | > 94.4 | – | – | 30.1 | 33.2 µM | 17.2
15 | COc1cc(-c2oc3c(OC)cc(OC)c(O)c3c(=O)c2OC)cc(OC)c1OC | – | > 100 | – | – | – | – | – | – | 6.62 | – | > 100 | – | 32.7 | – | 22.9 | – | > 100 | > 100 | > 100 µM | –
16 | CC[C@@]1(O)C(=O)OCc2c1cc1n(c2=O)Cc2cc3cccc([N+](=O)[O-])c3nc2-1 | 0.6 | 41.5 | 0.0506 | 50.4 | 4.63 | – | – | 0.142 | 0.582 | 0.0671 | 1.51 | 0.857 | > 100 | 0.501 | 17.1 | – | – | 25.9 | 31.8 µM | 4.92
17 | COc1ccc2cc(C(=O)/C=C/c3ccc(N(C)C)cc3)ccc2c1 | 60.3 | > 100 | – | – | > 100 | 57.3 | > 100 µM | > 100 | > 100 | 62.5 | > 100 | > 100 | > 100 | > 100 | > 100 | 79.1 | > 100 | > 100 | – | –
18 | O=C(NC(=O)c1ccccc1[N+](=O)[O-])Nc1ccc(Oc2ncc(Cl)cn2)c([N+](=O)[O-])c1 | – | > 100 | – | > 100 | – | – | > 95.6 µM | – | > 100 | – | > 100 | – | > 100 | – | > 69.3 | – | > 100 | 6.06 | – | –
19 | COC(=O)C1=CO[C@@H](OC2OC(CO)C(O)C(O)C2O)[C@H]2[C@@H](C)[C@@H](O)[C@@H](O)[C@@H]12 (some centres undefined) | – | > 100 | – | – | – | – | > 100 µM | – | > 100 | – | – | – | > 100 | – | > 100 | – | > 100 | > 100 | > 100 µM | –
20 | COc1ccc2c(c1)oc(=O)c1cc(OC)ccc12 | > 100 | > 100 | > 100 | > 100 | > 100 | > 100 | > 100 µM | > 100 | > 100 | > 100 | > 100 | > 100 | > 100 | > 100 | > 100 | – | – | > 100 | > 100 µM | > 100
21 | COc1ccc(NC(=O)CC/C(CC(=O)c2ccco2)=N/NC(N)=S)cc1 | – | > 100 | – | > 100 | – | – | > 100 µM | – | > 100 | – | > 100 | – | > 100 | – | > 100 | – | – | > 100 | > 100 µM | –
22 | COC(=O)c1ccccc1N1C(=O)Cc2ccccc2C1=O | – | > 100 | – | – | – | – | > 100 µM | – | – | – | – | – | > 100 | – | > 100 | – | > 100 | > 100 | > 100 µM | –
23 | O=c1[nH]c(=O)c2cc3cc(C4CC(O)C(CO)O4)ccc3cc2[nH]1 (centres undefined) | > 100 | > 100 | > 100 | > 100 | > 100 | > 100 | > 100 µM | > 100 | > 100 | > 100 | > 100 | > 100 | > 100 | > 100 | > 100 | – | – | > 100 | > 100 µM | > 100
24 | COc1ccc(Sc2nc3cc(N)cc(N)c3nc2-c2ccccc2)cc1 | 42.4 | > 100 | 2.28 | 8.36 | 19.3 | – | – | > 100 | > 100 | 20 | > 100 | > 100 | > 100 | 32.9 | > 100 | – | – | > 100 | – | –
25 | CCCNCC(=O)O[C@]1(CC)C(=O)OCc2c1cc1n(c2=O)Cc2cc3ccccc3nc2-1 | – | 1.98 | – | 0.308 | – | – | – | – | – | – | 0.154 | – | 8.33 | – | > 100 | – | – | 3.07 | 4.36 µM | –
26 | NC(N)=NC(N)=Nc1cnccn1 | – | > 100 | – | > 100 | – | – | > 100 µM | – | > 100 | – | – | – | > 100 | – | > 100 | – | – | > 100 | > 100 µM | –

Source: PubChem BioAssay (NCI)
